According to the supplement of paper PMC9663587:

Key:
ABT-737 = compound: CN(C)CC[C@H](CSc1ccccc1)Nc1ccc(S(=O)(=O)NC(=O)c2ccc(N3CCN(Cc4ccccc4-c4ccc(Cl)cc4)CC3)cc2)cc1[N+](=O)[O-] [ABT-737]
Saracatinib/AZD0530 = compound: CN1CCN(CCOc2cc(OC3CCOCC3)c3c(Nc4c(Cl)ccc5c4OCO5)ncnc3c2)CC1 [Saracatinib/AZD0530]
Flavopiridol [1] = compound: T1, CN1CC[C@H](c2c(O)cc(O)c3c(=O)cc(-c4ccccc4Cl)oc23)[C@H](O)C1 [Flavopiridol]
[2] = compound: CO[C@@H](C)Cn1c(=O)n(C)c2cnc3ccc(-c4cncc(C(C)(C)O)c4)cc3c21
Taselisib/GDC0032 = compound: Cc1nc(-c2cn3c(n2)-c2ccc(-c4cnn(C(C)(C)C(N)=O)c4)cc2OCC3)n(C(C)C)n1 [Taselisib/GDC0032]
YKL-5-124 = compound: C=CC(=O)Nc1ccc(C(=O)Nc2[nH]nc3c2CN(C(=O)N[C@H](CN(C)C)c2ccccc2)C3(C)C)cc1 [YKL-5-124]; assay: GR value, 72 h; higher = faster growth (1 = untreated, <0 = killing);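 note: breast cancer and non-malignant breast epithelial lines, nine half-log doses, viable cells counted by Hoechst and LIVE/DEAD dye imaging versus time-zero plates and DMSO controls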
BSJ-03-123 = compound: CC(=O)c1c(C)c2cnc(Nc3ccc(N4CCN(CCOCCOCCOCCNC(=O)COc5cccc6c5C(=O)N(C5CCC(=O)NC5=O)C6=O)CC4)cn3)nc2n(C2CCCC2)c1=O [BSJ-03-123]; assay: as above
[3] = compound: CC(=O)c1c(C)c2cnc(Nc3ccc(N4CCNCC4)cn3)nc2n(C2CCCC2)c1=O; assay: as above
[4] = compound: CCN1CCN(Cc2ccc(Nc3ncc(F)c(-c4cc(F)c5nc(C)n(C(C)C)c5c4)n3)nc2)CC1; assay: as above
Neratinib/HKI272 = compound: CCOc1cc2ncc(C#N)c(Nc3ccc(OCc4ccccn4)c(Cl)c3)c2cc1NC(=O)/C=C/CN(C)C [Neratinib/HKI272]; assay: as above
[5] = compound: CCc1cnn2c(NCc3ccc[n+]([O-])c3)cc(N3CCCC[C@H]3CCO)nc12; assay: as above
LEE011/Ribociclib = compound: CN(C)C(=O)c1cc2cnc(Nc3ccc(N4CCNCC4)cn3)nc2n1C1CCCC1 [LEE011/Ribociclib]; assay: as above
THZ531 = compound: CN(C)C/C=C/C(=O)Nc1ccc(C(=O)N2CCC[C@@H](Nc3ncc(Cl)c(-c4c[nH]c5ccccc45)n3)C2)cc1 [THZ531]; assay: as above
THZ1 = compound: CN(C)C/C=C/C(=O)Nc1ccc(C(=O)Nc2cccc(Nc3ncc(Cl)c(-c4c[nH]c5ccccc45)n3)c2)cc1 [THZ1]; assay: as above
Flavopiridol [6] = compound: T1, Flavopiridol; assay: as above
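Throughout, for GR50, 72 h: breast cancer and non-malignant breast epithelial cell lines, Deep Dye Drop or Dye Drop imaging, nine half-log doses, GR normalized to time-zero plates and DMSO-only controls.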

MCF10A
GR50, 72 h (ABT-737): > 10 µM
GR50, 72 h (Saracatinib/AZD0530): 4.83 µM
GR50, 72 h (Flavopiridol [1]): 0.152 µM
GR50, 72 h [2]: 0.163 µM
GR50, 72 h (Taselisib/GDC0032): 0.119 µM
GR value (YKL-5-124; 0.001 µM): 0.472 GR
GR value (YKL-5-124; 0.003162 µM): 0.235 GR
GR value (YKL-5-124; 0.01 µM): 0.149 GR
GR value (YKL-5-124; 0.03162 µM): 0.0788 GR
GR value (YKL-5-124; 0.1 µM): 0.0321 GR
GR value (YKL-5-124; 0.3162 µM): 0.0253 GR
GR value (YKL-5-124; 1 µM): 0.0094 GR
GR value (YKL-5-124; 3.162 µM): -0.0385 GR
GR value (YKL-5-124; 10 µM): -0.153 GR
GR value (BSJ-03-123; 0.001 µM): 0.915 GR
GR value (BSJ-03-123; 0.003162 µM): 0.877 GR
GR value (BSJ-03-123; 0.01 µM): 0.81 GR
GR value (BSJ-03-123; 0.03162 µM): 0.76 GR
GR value (BSJ-03-123; 0.1 µM): 0.736 GR
GR value (BSJ-03-123; 0.3162 µM): 0.708 GR
GR value (BSJ-03-123; 1 µM): 0.577 GR
GR value (BSJ-03-123; 3.162 µM): 0.502 GR
GR value (BSJ-03-123; 10 µM): -0.113 GR
GR value ([3]; 0.0003162 µM): 0.996 GR
GR value ([3]; 0.001 µM): 0.999 GR
GR value ([3]; 0.003162 µM): 0.979 GR
GR value ([3]; 0.01 µM): 0.939 GR
GR value ([3]; 0.03162 µM): 0.852 GR
GR value ([3]; 0.1 µM): 0.748 GR
GR value ([3]; 0.3162 µM): 0.653 GR
GR value ([3]; 1 µM): 0.582 GR
GR value ([3]; 3.162 µM): 0.444 GR
GR value ([4]; 0.001 µM): 0.981 GR
GR value ([4]; 0.003162 µM): 0.95 GR
GR value ([4]; 0.01 µM): 0.882 GR
GR value ([4]; 0.03162 µM): 0.78 GR
GR value ([4]; 0.1 µM): 0.665 GR
GR value ([4]; 0.3162 µM): 0.543 GR
GR value ([4]; 1 µM): 0.364 GR
GR value ([4]; 3.162 µM): 0.255 GR
GR value ([4]; 10 µM): 0.159 GR
GR value (Neratinib/HKI272; 0.0003162 µM): 1 GR
GR value (Neratinib/HKI272; 0.001 µM): 1 GR
GR value (Neratinib/HKI272; 0.003162 µM): 1 GR
GR value (Neratinib/HKI272; 0.01 µM): 0.976 GR
GR value (Neratinib/HKI272; 0.03162 µM): 0.723 GR
GR value (Neratinib/HKI272; 0.1 µM): 0.496 GR
GR value (Neratinib/HKI272; 0.3162 µM): 0.304 GR
GR value (Neratinib/HKI272; 1 µM): 0.179 GR
GR value (Neratinib/HKI272; 3.162 µM): 0.099 GR
GR value ([5]; 0.0001 µM): 1.01 GR
GR value ([5]; 0.0003162 µM): 1.01 GR
GR value ([5]; 0.001 µM): 1.02 GR
GR value ([5]; 0.003162 µM): 1.04 GR
GR value ([5]; 0.01 µM): 0.958 GR
GR value ([5]; 0.03162 µM): -0.188 GR
GR value ([5]; 0.1 µM): -0.226 GR
GR value ([5]; 0.3162 µM): -0.223 GR
GR value ([5]; 1 µM): -0.223 GR
GR value (LEE011/Ribociclib; 0.001 µM): 0.91 GR
GR value (LEE011/Ribociclib; 0.003162 µM): 0.888 GR
GR value (LEE011/Ribociclib; 0.01 µM): 0.821 GR
GR value (LEE011/Ribociclib; 0.03162 µM): 0.781 GR
GR value (LEE011/Ribociclib; 0.1 µM): 0.79 GR
GR value (LEE011/Ribociclib; 0.3162 µM): 0.756 GR
GR value (LEE011/Ribociclib; 1 µM): 0.732 GR
GR value (LEE011/Ribociclib; 3.162 µM): 0.665 GR
GR value (LEE011/Ribociclib; 10 µM): 0.434 GR
GR value (THZ531; 0.0001 µM): 0.985 GR
GR value (THZ531; 0.0003162 µM): 0.995 GR
GR value (THZ531; 0.001 µM): 1.01 GR
GR value (THZ531; 0.003162 µM): 1 GR
GR value (THZ531; 0.01 µM): 1.01 GR
GR value (THZ531; 0.03162 µM): 0.981 GR
GR value (THZ531; 0.1 µM): 0.903 GR
GR value (THZ531; 0.3162 µM): 0.612 GR
GR value (THZ531; 1 µM): -0.625 GR
GR value (THZ1; 0.0001 µM): 0.995 GR
GR value (THZ1; 0.0003162 µM): 1.01 GR
GR value (THZ1; 0.001 µM): 0.985 GR
GR value (THZ1; 0.003162 µM): 0.992 GR
GR value (THZ1; 0.01 µM): 0.896 GR
GR value (THZ1; 0.03162 µM): 0.69 GR
GR value (THZ1; 0.1 µM): 0.32 GR
GR value (THZ1; 0.3162 µM): -0.0551 GR
GR value (THZ1; 1 µM): -0.563 GR
GR value (Flavopiridol [6]; 0.0001 µM): 1.01 GR
GR value (Flavopiridol [6]; 0.0003162 µM): 1.01 GR
GR value (Flavopiridol [6]; 0.001 µM): 1.03 GR
GR value (Flavopiridol [6]; 0.003162 µM): 1.03 GR
GR value (Flavopiridol [6]; 0.01 µM): 1.04 GR
GR value (Flavopiridol [6]; 0.03162 µM): 1.03 GR
GR value (Flavopiridol [6]; 0.1 µM): 0.822 GR
GR value (Flavopiridol [6]; 0.3162 µM): -0.322 GR
GR value (Flavopiridol [6]; 1 µM): -0.67 GR
